According to US20260248826A1, “DRUG COMBINATION FOR TREATMENT OF PANCREATIC CANCER” (priority 2023, published 2026):

Tests used:
[1] = tested on: MIA-PaCa2 and PANC-1 pancreatic cancer cell lines; conditions: after incubation with triptolide; cited from earlier work
[2] = tested on: S2-013, S2-VP10 and Hs766T; conditions: metastatic lines; cited from earlier work
[3] = tested on: pancreatic tumor cells and CAFs; conditions: cited from earlier work
S2-VP10 tumor cells = assay: Orthotopic S2-VP10 pancreatic tumor model in athymic nude mice; assay type: in vivo
Method: A preclinical study of minnelide was conducted in mice. Female athymic nude mice (NCI nu/nu; 4 to 6 weeks old) were anesthetized with xylazine/ketamine, and S2-VP10 tumor cells embedded in Matrigel were implanted into the pancreatic tail (3×10^5 cells/mouse). Twelve days after tumor implantation (Day 0), animals were randomized to receive saline, nab-paclitaxel plus gemcitabine (Gem/Abx; 250/25 mg/kg), or minnelide plus nab-paclitaxel plus gemcitabine (Minn/Gem/Abx; 0.15/250/25 mg/kg or 0.21/250/25 mg/kg) (10 animals/group). Minnelide was administered once daily (QD) by oral gavage (PO). Treatment continued until Day 28 when animals were sacrificed.

[4] = Phase 1 study of minnelide given intravenously in patients with Advanced GI Tumors; assay type: in vivo, human; conditions: IV
Source text: Intravenous Minnelide. Phase 1, Multi-Center, Open-Label, Dose-Escalation, Safety, Pharmacokinetic, and Pharmacodynamic Study of minnelide given intravenously daily for 21 days followed by 7 days off schedule in patients with Advanced GI Tumors. A second dosing schedule of minnelide given intravenously QD for 5 days with 2 days off for three weeks followed by a 7-day rest period was also explored during this study. A total of 45 patients enrolled in the Phase 1 study, however 3 patients were not dosed with study drug. The remaining 42 patients were dosed in the study. The primary reason for the discontinuation of treatment was disease progression. There were 6 deaths in the study, but these occurred after the study drug had ended and were within the 30-day follow-up period. […] One patient who died from respiratory failure, and this was also found to be not related to use of the study drug.

[5] = Phase 1 study of Minnelide Capsules alone or in combination with protein-bound paclitaxel in patients with Advanced Solid Tumors; assay type: in vivo, human
Source text: Oral Minnelide. A Phase 1, Multi-Center, Open-Label, Dose-Escalation, Safety, Pharmacokinetic, and Pharmacodynamic Study of Minnelide™ Capsules given alone or in combination with protein-bound paclitaxel in patients with Advanced Solid Tumors.
A total of 51 patients have been enrolled and dosed in the Phase 1 study, of whom […] were evaluable for safety (34 in the monotherapy regimen and 16 in the combination regimen). Twenty-nine patients have completed treatment in the monotherapy regimen, and 6 dose escalations have occurred. In the monotherapy regimen, one DLT has been observed, which occurred in the 1.25 mg cohort. […] As a result of this DLT, and out of an abundance of caution, 3 additional patients were enrolled in the 1.0 mg cohort.
A total of 17 patients had been enrolled in combination therapy regimen. Two DLTs have been observed: one at the 0.25 mg minnelide and 125 mg/m^2 protein-bound paclitaxel dose level and one at the 0.25 mg minnelide and 100 mg/m^2 protein-bound paclitaxel dose level. […] A total of 2 SAEs occurred in this patient, neither of which were deemed related to the IP. As this was the first patient in the combination regimen to receive protein-bound paclitaxel with minnelide, the combination regimen was put on enrolment hold until further escalation parameters were introduced. The second DLT occurred in the first patient of the 0.25 mg minnelide and 100 mg/m^2 protein-bound paclitaxel cohort: a Grade 5 event of sepsis.

[6] = tested on: pancreatic and ovarian tumor cells; assay: In vitro antitumor activity (activated with alkaline phosphatase to release triptolide); assay type: cell-based
[7] = tested on: pancreatic and ovarian cancer; assay: Daily administration in models of pancreatic and ovarian cancer; assay type: in vivo; conditions: administered daily
[8] = Blood counts of patients during minnelide dosing and withholding; assay type: in vivo, human
Source text: A drop in blood counts is usually seen within the first 5-7 days of the start of minnelide and resolves in 4-8 days of withholding of minnelide.
CBC with differential was done on days 1, 8, 15, 22 and more frequently as clinically indicated. Patient were hospitalized for close monitoring when the ANC level was <1000 mm^3 (grade 3 or higher) or platelet was <100,000 cells/mm^3 at any time. Minnelide™ Capsules would not resume until the ANC level was ≥1500 mm^3 or platelet was ≥100,000 cells/mm^3.

[9] = tested on: extracellular matrix (ECM) of the pancreatic tumors; conditions: by downregulating hyaluronan synthesis and preventing collagen cross linking; cited from earlier work
[10] = tested on: transforming growth factor-β (TGFβ) signaling in cancer associated fibroblasts (CAFs); conditions: dose of 0.2 mg/kg; cited from earlier work
[11] = Day 28, minnelide 0.15 mg/kg QD PO added to Gem/Abx 250/25 mg/kg, compared with Gem/Abx alone
[12] = Day 28, minnelide 0.21 mg/kg QD PO added to Gem/Abx 250/25 mg/kg, compared with Gem/Abx alone
[13] = overall, daily oral minnelide concurrently with Gem/Abx, compared with minnelide or Gem/Abx alone
[14] = oral, monotherapy and combination

CC(C)[C@]12O[C@H]1[C@@H]1O[C@]13[C@]1(O[C@H]1C[C@H]1C4=C(CC[C@@]13C)C(=O)OC4)[C@@H]2O [triptolide]
caspase-3 activity [1]: significantly increased
cytochrome c release from mitochondria into the cytosol [1]: significantly increased
autophagic cell death [2]: induces autophagic cell death
SE-associated genes (BRD4, MYC, RNA Pol II, Collagen 1) expression ([3]; both cell types, mRNA and protein levels): downregulation
cytotoxicity ([3]; both pancreatic tumor cells and CAFs): cytotoxic

CC(C)[C@]12O[C@H]1[C@@H]1O[C@]13[C@]1(O[C@H]1C[C@H]1C4=C(CC[C@@]13C)C(=O)OC4)[C@@H]2OCOP(=O)([O-])[O-].[Na+].[Na+] [minnelide, disodium; [(1S,2S,4S,5S,7S,8R,9R,11S,13S)-1-methyl-17-oxo-7-propan-2-yl-3,6,10,16-tetraoxaheptacyclo[11.7.0.0^2,4.0^2,9.0^5.7.09^,11.0^14,18]icos-14 (18)-en-8-yl]oxymethyl phosphate]
tumor volumes (S2-VP10 tumor cells; [11]): further reduced
tumor weights (S2-VP10 tumor cells; [11]): further reduced
tumor volumes (S2-VP10 tumor cells; [12]): further reduced
tumor weights (S2-VP10 tumor cells; [12]): further reduced
tumor volumes (S2-VP10 tumor cells; [13]): decreased
tumor weights (S2-VP10 tumor cells; [13]): decreased
Anemia and thrombocytopenia Grade 3 and 4, drug related, patients [4]: 22%
Serious Adverse Events related to the study drug [4]: six
Serious Adverse Events, total [4]: 28
TEAEs leading to discontinuation probably related to study drug, considered DLTs [4]: two
neutropenia grade 3 and 4 of short duration, drug related [4]: observed at all dose levels
patients with Serious Adverse Events [4]: 17
patients with at least 1 AE considered related to the study drug [4]: 32
patients with neutropenic fever and neutropenic infection, drug related [4]: three
deaths in the study ([4]; 42 patients dosed, within 30-day follow-up, not related to study drug): 6
patients who discontinued the study drug due to TEAEs ([4]; all Grade 3): 3
incidence of most commonly reported TEAEs regardless of causality ([4]; hypoalbuminemia, anemia, hypoproteinemia, fatigue, neutropenia, leukopenia, thrombocytopenia, nausea, hypocalcemia, diarrhea, hyperphosphatemia, constipation, vomiting, hyponatremia, lymphopenia, abdominal pain, dehydration, hyperglycemia, peripheral edema, hypophosphatemia, headache): > 20%
other possibly related side effects of any grade, patients ([4]; nausea, vomiting, diarrhea, constipation, anorexia, stomatitis, cerebellar toxicity, embolism, dyspnea): ≤ 3%
time to resolution of neutropenia ([4]; not receiving treatment): within a couple of days
DLTs in five additional patients ([5]; 0.25 mg minnelide and 100 mg/m^2 protein-bound paclitaxel cohort): no DLTs observed
DLTs observed ([5]; 0.25 mg minnelide and 100 mg/m^2 protein-bound paclitaxel dose level, Grade 5 sepsis): one
DLTs observed ([5]; 0.25 mg minnelide and 125 mg/m^2 protein-bound paclitaxel dose level): one
DLTs observed ([5]; combination regimen with protein-bound paclitaxel, 17 patients): Two
DLT observed ([5]; oral monotherapy regimen, in the 1.25 mg cohort, Grade 5 sepsis): one
related SAEs by type ([5]; oral, combination therapy with protein-bound paclitaxel): one event each of Grade 5 sepsis and Grade 2 esophagitis
SAEs related to the investigational product [5, 14]: 8
SAEs, total [5, 14]: 45
patients with SAEs [5, 14]: 25
related SAEs by type ([5]; oral, patients on monotherapy): 1 event each of Grade 5 sepsis, Grade 4 sepsis, Grade 3 nausea, Grade 3 polymicrobial bacteraemia, Grade 3 intractable nausea, Grade 3 hypokalaemia, and Grade 2 enteritis
AE incidence: Lower extremity oedema ([5]; regardless of causality): 24%
AE incidence: abdominal distension ([5]; regardless of causality): 12%
AE incidence: abdominal pain ([5]; regardless of causality): 30%
AE incidence: anemia ([5]; regardless of causality): 18%
AE incidence: back pain ([5]; regardless of causality): 12%
AE incidence: chills ([5]; regardless of causality): 12%
AE incidence: constipation ([5]; regardless of causality): 24%
AE incidence: dehydration ([5]; regardless of causality): 18%
AE incidence: dizziness ([5]; regardless of causality): 12%
AE incidence: dyspnoea ([5]; regardless of causality): 12%
AE incidence: fatigue ([5]; regardless of causality): 18%
AE incidence: gastroesophageal reflux disease ([5]; regardless of causality): 12%
AE incidence: leukopenia ([5]; regardless of causality): 12%
AE incidence: local swelling ([5]; regardless of causality): 18%
AE incidence: nausea ([5]; regardless of causality): 24%
AE incidence: neutropenia ([5]; regardless of causality): 30%
AE incidence: neutrophil count decreased ([5]; regardless of causality): 13%
AE incidence: pain ([5]; regardless of causality): 12%
AE incidence: pleural effusion ([5]; regardless of causality): 12%
AE incidence: pyrexia ([5]; regardless of causality): 24%
AE incidence: skin irritation ([5]; regardless of causality): 12%
AE incidence: vomiting ([5]; regardless of causality): 18%
antitumor activity in vitro [6]: potent antitumor activity
animal survival [7]: markedly improved
tumor volumes [7]: significantly reduced
tumor weights [7]: significantly reduced
time to drop in blood counts ([8]; from the start of minnelide): 5 to 7 days
time to resolution of drop in blood counts ([8]; withholding of minnelide): 4 to 8 days
extracellular matrix (ECM) of pancreatic tumors [9]: depleted
TGFβ signaling in CAFs [10]: disrupts
